Measurements taken from patent US20210115040A1, “OGA INHIBITOR COMPOUNDS” (Janssen Pharmaceutica NV, priority 2018, published 2021).

Biological target: T1, recombinant human Meningioma Expressed Antigen 5 (MGEA5), also referred to as O-GlcNAcase (OGA) (Homo sapiens, UniProt O60502)
T1 construct: Full length OGA enzyme was purchased at OriGene (cat #TP322411); purchased OriGene TP322411
T1 sequence (O60502 1-916): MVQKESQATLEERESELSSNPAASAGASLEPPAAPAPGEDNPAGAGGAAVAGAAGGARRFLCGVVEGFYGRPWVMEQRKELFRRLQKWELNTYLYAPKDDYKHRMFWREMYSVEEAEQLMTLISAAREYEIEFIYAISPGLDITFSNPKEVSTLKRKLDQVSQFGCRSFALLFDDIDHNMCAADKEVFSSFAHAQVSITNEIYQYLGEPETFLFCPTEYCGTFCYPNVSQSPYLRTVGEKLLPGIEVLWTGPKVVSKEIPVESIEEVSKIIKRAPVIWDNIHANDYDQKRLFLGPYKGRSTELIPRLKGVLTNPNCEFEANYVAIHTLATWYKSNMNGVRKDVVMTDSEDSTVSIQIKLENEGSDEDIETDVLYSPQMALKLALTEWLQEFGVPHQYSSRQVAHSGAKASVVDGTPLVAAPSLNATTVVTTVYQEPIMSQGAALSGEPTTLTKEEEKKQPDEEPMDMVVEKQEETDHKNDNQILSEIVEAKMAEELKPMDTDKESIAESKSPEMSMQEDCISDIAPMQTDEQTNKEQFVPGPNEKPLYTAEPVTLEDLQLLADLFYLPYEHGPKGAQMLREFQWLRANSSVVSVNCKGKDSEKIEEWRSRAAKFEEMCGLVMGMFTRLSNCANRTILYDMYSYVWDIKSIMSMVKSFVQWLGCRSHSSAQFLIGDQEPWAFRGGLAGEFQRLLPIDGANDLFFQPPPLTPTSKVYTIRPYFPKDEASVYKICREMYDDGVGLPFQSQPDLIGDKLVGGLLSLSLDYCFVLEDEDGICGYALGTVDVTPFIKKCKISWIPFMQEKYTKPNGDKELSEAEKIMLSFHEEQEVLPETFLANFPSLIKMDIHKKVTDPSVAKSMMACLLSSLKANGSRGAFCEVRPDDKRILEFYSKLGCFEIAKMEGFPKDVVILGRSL
Experiment: OGA biochemical assay (inhibition of FM-GlcNAc hydrolysis, fluorescence)
Settings: FM-GlcNAc substrate
Outline: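 Full-length OGA (2 nM) pre-incubated 60 min at room temperature with compound, then FM-GlcNAc (100 uM final) hydrolysed 6 h at room temperature in 200 mM citrate/phosphate pH 7.2 with 0.005% Tween-20. Stopped with carbonate pH 11.0; fluorescein read at ex 485/em 538 nm. IC50 and Hill coefficient from curve fit between no-inhibitor and saturating-standard controls.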

Cc1cc(C2CCCN(C(C)c3ccc4sc(C)nc4n3)C2)cc(C)n1 (racemic) [Compound 39]
IC50 (6 h at room temperature, read-out: Enzymatic hOGA, pIC50 (converted)): 12.6 nM
Emax (maximal effect, read-out: Enzymatic Emax (%)): 99%
